Values of other authors as cited in US10849879B2, “Localized modulation of tissues and cells to enhance therapeutic effects including renal denervation” (Mercator MedSystems, Inc., priority 2011, dated 2020).
“And” between values parts separate entries of the source, which are not always exact repeats. Equal entries are not always repeated.

System: axon

(2-(Hexahydro-1(2H)-azocinyl)ethyl)guanidine sulfate (1:1) [guanethidine monosulfate]
concentrations producing axon retraction in vitro: ≥ 0.2 mM and ≥ 60 μg/mL
